# US20230167073A1 (Teijin Pharma Limited, priority 2020, published 2023)
# Molecular target: T1, Human TRPC6 (Homo sapiens, UniProt Q9Y210)
# T1 construct: expressed in transfected cells
# T1 sequence (Q9Y210 1-931): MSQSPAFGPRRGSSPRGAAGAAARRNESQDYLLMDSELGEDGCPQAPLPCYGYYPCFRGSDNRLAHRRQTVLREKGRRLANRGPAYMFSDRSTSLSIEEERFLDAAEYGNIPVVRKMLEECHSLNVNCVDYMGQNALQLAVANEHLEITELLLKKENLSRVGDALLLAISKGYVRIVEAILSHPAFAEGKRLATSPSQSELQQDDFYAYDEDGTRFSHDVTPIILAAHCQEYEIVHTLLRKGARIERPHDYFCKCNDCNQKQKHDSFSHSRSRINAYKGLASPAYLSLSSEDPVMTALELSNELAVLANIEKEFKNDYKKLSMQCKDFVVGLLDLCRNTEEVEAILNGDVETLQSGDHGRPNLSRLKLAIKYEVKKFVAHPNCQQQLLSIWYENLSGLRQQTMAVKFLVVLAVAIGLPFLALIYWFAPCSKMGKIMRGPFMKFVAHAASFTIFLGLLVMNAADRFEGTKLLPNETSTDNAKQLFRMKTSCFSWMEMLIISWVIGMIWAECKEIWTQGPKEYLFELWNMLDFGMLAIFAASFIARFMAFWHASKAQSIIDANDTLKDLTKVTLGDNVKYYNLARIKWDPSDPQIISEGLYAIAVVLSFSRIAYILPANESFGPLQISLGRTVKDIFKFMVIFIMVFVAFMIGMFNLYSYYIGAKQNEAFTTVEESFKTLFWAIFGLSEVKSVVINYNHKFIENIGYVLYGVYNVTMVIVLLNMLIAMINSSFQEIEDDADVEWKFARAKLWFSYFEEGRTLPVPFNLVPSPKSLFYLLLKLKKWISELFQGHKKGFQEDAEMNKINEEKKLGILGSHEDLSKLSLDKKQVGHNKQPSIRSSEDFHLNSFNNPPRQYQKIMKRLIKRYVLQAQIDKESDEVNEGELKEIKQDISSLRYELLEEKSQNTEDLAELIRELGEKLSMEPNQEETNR
# Assay: Evaluation of TRPC6 channel inhibitory activity (1), FLIPR Calcium 5 Assay Kit, OAG stimulation (Compound Nos. 1-1293)
# Type: cell-based
# Conditions: Human TRPC6 stably-expressing cells, OAG 30 μM, FLIPR Calcium 5 Assay Kit; read-out: Inhibitory activity (pIC50 class) (converted)
# How it was run: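 The FLIPR signal is maximum fluorescence after 30 μM OAG minus minimum before compound, measured in a human TRPC6 stable line loaded with Calcium 5 dye. Compounds were preincubated 20 min. pIC50 came from four-parameter logistic fitting of inhibition rates and is given as symbol ranges.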
row,Compound,IC50 [nM]
1,"Cc1cc(Oc2cc(C#N)ccc2-c2ncc(CCN)cn2)cc(N2CCOCC2)n1 [Compound 250, 4-[5-(2-aminoethyl)pyrimidin-2-yl]-3-(2-methyl-6-morpholin-4-ylpyridin-4-yl)oxybenzonitrile]",< 10
2,"COC1CCN(c2cc(Oc3cc(C#N)ccc3-n3cc([C@@H](O)CN)cn3)nc(C)n2)CC1 [Compound 251, 4-[4-[(1R)-2-amino-1-hydroxyethyl]pyrazol-1-yl]-3-[6-(4-methoxypiperidin-1-yl)-2-methylpyrimidin-4-yl]oxybenzonitrile]",> 1000
3,"Cc1nc(Oc2cc(C#N)ccc2-n2cc([C@@H](O)CN)cn2)cc(N2CCC(F)(F)C2)n1 [Compound 252, 4-[4-[(1R)-2-amino-1-hydroxyethyl]pyrazol-1-yl]-3-[6-(3,3-difluoropyrrolidin-1-yl)-2-methylpyrimidin-4-yl]oxybenzonitrile]",> 1000
4,"Cc1nc(Oc2cc(C#N)ccc2-n2cc([C@@H](O)CN)cn2)cc(N2CCC(C(F)(F)F)CC2)n1 [Compound 253, 4-[4-[(1R)-2-amino-1-hydroxyethyl]pyrazol-1-yl]-3-[2-methyl-6-[4-(trifluoromethyl)piperidin-1-yl]pyrimidin-4-yl]oxybenzonitrile]",< 10
5,"Cc1nc(Oc2cc(C#N)ccc2-n2cc([C@@H](O)CN)cn2)cc(N2CCC(F)(F)CC2)n1 [Compound 256, 4-[4-[(1R)-2-amino-1-hydroxyethyl]pyrazol-1-yl]-3-[6-(4,4-difluoropiperidin-1-yl)-2-methylpyrimidin-4-yl]oxybenzonitrile]",10 to 1000
6,"Cc1nc(Oc2cc(C#N)ccc2-n2cc([C@@H](O)CN)cn2)cc(N2CCCC(F)(F)C2)n1 [Compound 257, 4-[4-[(1R)-2-amino-1-hydroxyethyl]pyrazol-1-yl]-3-[6-(3,3-difluoropiperidin-1-yl)-2-methylpyrimidin-4-yl]oxybenzonitrile]",10 to 1000
7,"Cc1nc(Oc2cc(C#N)ccc2-n2cc(CCN)cn2)cc(N2CCOCC2)n1 [Compound 259, 4-[4-(2-aminoethyl)pyrazol-1-yl]-3-(2-methyl-6-morpholin-4-ylpyrimidin-4-yl)oxybenzonitrile]",10 to 1000
8,"Cc1cc(Oc2cc(C#N)ccc2-c2ncc(CCN)cn2)cc(N2CCCC2)n1 [Compound 262, 4-[5-(2-aminoethyl)pyrimidin-2-yl]-3-(2-methyl-6-pyrrolidin-1-ylpyridin-4-yl)oxybenzonitrile]",< 10

# Now from value to compound:
row,IC50 [nM],Compound
1,< 10,"Cn1nc(-c2ccccn2)cc1Oc1cc(C#N)ccc1-c1ccc(C(O)CN)cn1 (centres unmarked) [Compound 249, 4-[5-(2-amino-1-hydroxyethyl)pyridin-2-yl]-3-(2-methyl-5-pyridin-2-ylpyrazol-3-yl)oxybenzonitrile]"
2,< 10,"Cc1cc(Oc2cc(C#N)ccc2-c2ccc(CCN)cn2)cc(N2CCCC2)n1 [Compound 254, 4-[5-(2-aminoethyl)pyridin-2-yl]-3-(2-methyl-6-pyrrolidin-1-ylpyridin-4-yl)oxybenzonitrile]"
3,10 to 1000,"CC(C)OCc1cc(Oc2cc(C#N)ccc2-c2ccc(CCN)cn2)n(C)n1 [Compound 255, 4-[5-(2-aminoethyl)pyridin-2-yl]-3-[2-methyl-5-(propan-2-yloxymethyl)pyrazol-3-yl]oxybenzonitrile]"
4,< 10,"Cc1cc(Oc2cc(C#N)ccc2-c2ccc(CCN)cn2)cc(-c2ccccn2)n1 [Compound 258, 4-[5-(2-aminoethyl)pyridin-2-yl]-3-(2-methyl-6-pyridin-2-ylpyridin-4-yl)oxybenzonitrile]"
5,< 10,"CCCc1cc(Oc2cc(C#N)ccc2-c2ncc(CCN)cn2)n(C)n1 [Compound 260, 4-[5-(2-aminoethyl)pyrimidin-2-yl]-3-(2-methyl-5-propylpyrazol-3-yl)oxybenzonitrile]"
6,< 10,"CC(C)c1cc(Oc2cc(C#N)ccc2-c2ncc(CCN)cn2)n(C)n1 [Compound 261, 4-[5-(2-Aminoethyl)pyrimidin-2-yl]-3-(2-methyl-5-propan-2-ylpyrazol-3-yl)oxybenzonitrile]"
